Laboratory results taken from patent publication US8809368B2, “Compounds affecting gap junction activity” (Kansas State University Research Foundation, priority 2006, dated 2014).

Tests used:
[1] = tested on: MEC; test: Soft agar colony growth, MEC; assay type: cell-based, human; settings: 100 nM
Procedure: Various oncogenes (e.g. ras, raf, neu, src, mos) down-regulate GJIC while several tumor suppressor genes can up-regulate GJIC. […] Cells were grown in soft agar to assess their capacity for anchorage-independent growth, which is a key feature of cell transformation due to the importance of cell-cell and cell-matrix based tumor suppression. MEC and T47D cells were treated with 10, 100, 1000, and 10000 nM PQ1 for 7 days. A graphical presentation of three experiment results is presented in log scale of PQ1 concentration. […] A 100 nM PQ1 inhibits 66% of colony growth compared to controls, without PQ1 treatment or 100 nM succinic acid.
Colony Growth Using Soft Agar. Cells were treated with 0, 10, 100, 200 and 500 nM PQ1 for 7 days. Base agar plates were prepared containing 0.8% agar and 0.4% agar in Ham's F12. Cells (5×10^4 cells/33 mm^2 well) were suspended in 100 μl of Ham's F12 with 0.4% agar and plated. These plates were maintained at 37° C. for 7 days and examined for the presence of colonies. Individual colonies of 50 μm or greater were examined.

[2] = tested on: R28 cells; test: Apoptosis assay, Annexin V-FITC/PI flow cytometry, R28 cells; assay type: cell-based, rat
Description: (A) Representative flow cytometer images of R28 cells with different treatments of PQ1 and/or CoCl2. The y-axis quantifies the number of cells stained with propidium iodine and the x-axis quantifies number of cells stained with Annexin V-FITC. (B,C) Histogram of % apoptotic cells after treatment with CoCl2 and PQ1. The percentage of apoptotic cells represents cells that are Annexin V-FITC positive and both propidium iodide and Annexin V-FITC positive after different time periods.
Apoptosis assay. Approximately 70% confluent R28Cells in 25 cm2 flasks were treated with PQ1 at 10 μM for 40 min followed by treatment with 500 μM CoCl2 for different time periods to induce apoptosis. After this, cells were harvested and stained with Annexin V-FITC and propidium iodide (PI) according to the manufacturer's protocol (BioVision # K101-100). Annexin V-FITC/PI binding was analyzed by flow cytometry using a BD FACSCalibur system and data was analyzed using the CellQuest software.
The later phase of apoptosis is assessed by measuring the DNA labeling with the PI, an indicator of the cell membrane permeabilization.

[3] = tested on: transformed human mammary epithelial cells (HMEC); test: Cell proliferation, HMEC; assay type: cell-based
Procedure: There was no effect seen on the cell proliferation in transformed human mammary epithelial cells (HMEC, data not shown).
MTT assay: This assay is done to measure cell proliferation and viability. Yellow MTT (3-(4,5-Dimethylthiazol-2-yl)-2,5-diphenyltetrazolium bromide, a tetrazole) is reduced to purple crystals, formazan in the mitochondria of living cells. A solubilization solution is added to dissolve the insoluble purple formazan product into a colored solution. The absorbance of this colored solution can be measured by a spectrophotometer. T47 D cells (20,000) were grown in 96-well plate and dosed with 10, 100, 200, 500 nM of PQ1 compound in 100 μl of complete media for 24 hours. MTT (20 μl) was added to the cells and purple formazan crystals were observed after 90 minutes. A solubilization solution (0.35 N HCl) was added to dissolve the formazan and the absorbance was measured at 595 nm wavelength with a background wavelength 690 nm by a spectrophotometer.

[4] = tested on: T47D cells; test: Gap junction activity (GJIC), flow cytometry of dye coupling, T47D cells; assay type: cell-based, human
Procedure: FIG. 4(A) MDA-MB-453 and (B) T47D cells were treated with low (500 nM) and high (10 μM) concentrations of PQs for 24 hours. Monolayers of acceptor cell population were grown on 25-cm flasks in the presence of Vibrant DiD. Vybrant DiD in acceptor cells is not able to pass through the gap junctions because of its hydrophobic property. Single cell suspensions of donor treated cells were prepared, labeled with 0.05 μg/ml calcein-AM, incubated at 37 C for 5 minutes. Quantification of dye coupling between the donor and acceptor cells was assessed by dual-excitation flow cytometry. […] Cells treated with 10 μM PQ3 have approximately 40-50% decrease in gap junction activity compared control or DMSO.

[5] = tested on: T47D breast cancer cells; test: Xenograft tumor growth of T47D cells in Nu/Nu mice; assay type: in vivo
Procedure: Mice were inoculated with 17β-estradiol (1.7 mg/pellet) before the injection of 1×10^7 T47D cells subcutaneously into the inguinal region of mammary fat pad. Animals received treatment at 1 μM PQ1 or 10 μM tamoxifen. The results after 6 days of injection show a decrease in tumor growth of PQ1-treated animals compared to control or tamoxifen.
The anti-tumor effect of PQ1 was also observed in animal model. Nu/Nu mice were inoculated with estradiol-17β (1.7 mg/pellet) before the injection of 1×10^7 T47D breast cancer cells subcutaneously into inguinal region of mammary fat pad.
Xenograft Tumors of T47D cells in Nu/Nu Mice. Nu/Nu mice were ordered from The Jackson Laboratory. Mice were inoculated with estradiol-17β (1.7 mg/pellet) before the injection of 1×10^7 T47D breast cancer cells subcutaneously into inguinal region of mammary fat pad. Cell viability of T47D cells were performed prior to injection. The tumor size was measured in three dimensions with calipers every 2 days starting at Day 7. […] When tumors reached 30-50 mm^3, three animals were randomly assigned to each treatment group. Animals were injected with 1 μM of PQ1 or 10 μM of tamoxifen and a single injection of treatment was set for 7 days and daily measurement of tumor size was recorded.

[6] = tested on: MDA-MB-231; test: Gap junction intercellular communication, MDA-MB-231 cells; assay type: cell-based, human; settings: Table 1

| SMILES | colony growth [1] | protection from CoCl2-induced apoptosis ([2]; 10 μM PQ1 40 min pre-treatment, then CoCl2 500 μM) | damage to the cells ([2]; 10 μM PQ1 only, 36 h) | cell proliferation [3] | increase in GJIC ([4]; FIG. 4, 24 hours) | effect on gap junction intercellular communication ([4]; Table 1, 500 nM) | tumor size compared to control ([5]; Day 2, 1 μM PQ1, single injection) | decrease of tumor growth ([5]; Day 6 after one injection, 1 μM PQ1, compared to control) [%] | tumor growth compared to control or tamoxifen ([5]; after 6 days of injection, 1 μM PQ1) | effect on gap junction intercellular communication [6] |
| --- | --- | --- | --- | --- | --- | --- | --- | --- | --- | --- |
| COc1cc(NCCCN)c2nccc(C)c2c1Oc1cccc(C(F)(F)F)c1.O=C(O)CCC(=O)O [PQ1, 6-Methoxy-8-[(3-aminopropyl)amino]-4-methyl-5-(3-trifluoromethylphenyloxy) quinoline succinic acid] | no effect | protected the cells significantly | did not cause any damage | no effect | 20-50% | Increase | decrease | 70 | decrease | – |
| COc1cc(N)c2nccc(C)c2c1Oc1cccc(C(F)(F)F)c1 [PQ3, 8-Amino-6-methoxy-4-methyl-5-(3-trifluoromethylphenyloxy)quinoline] | – | – | – | – | – | – | – | – | – | No effect |
